Results as given in patent US11267810B2, “Aminopyrimidine compound and composition comprising same and use thereof” (Shenzhen TargetRx, Inc., priority 2017, dated 2022).
Read-outs that look alike come from different tables or passages of the source.

Experiments:
EGFR mutant kinase = settings: cited from earlier work
[1] = Pharmacokinetic experiment in rats; assay type: in vivo, Sprague-Dawley rats; settings: rat; for AUC(0-t) / Cmax / Tmax / half-life / AUC(0-inf) / clearance / MRT inf / Vd / bioavailability: male, Sprague-Dawley, plasma; for AUC(0-inf): read-out: AUCINF—pred; for clearance: read-out: Cl—pred (converted); for MRT inf: read-out: MRTINF—pred; for Vd: read-out: Vz—pred; for bioavailability: PO 10 mg/kg vs IV 0.5 mg/kg
Description: Six male Sprague-Dawley rats, 7 to 8 weeks old, weighing approximately 210 g, were divided into 2 groups with 3 rats in each group. The pharmacokinetic differences were compared after administering to the rats a single dose of compounds through vein (in vein 0.5 mg/kg) or mouth (orally 10 mg/kg).
The rats were fed with standard feed, given water, and fasted 16 hours before the experiment. The drugs were dissolved with PEG400 and dimethyl sulfoxide. Orbital blood was collected at the time point of 0.083, 0.25, 0.5, 1, 2, 4, 6, 8, 12 and 24 hours after administration.
The rats were anesthetized for a short time after inhaling ether, and 300 μL of blood sample was collected from the orbit and put into a test tube, which contains 30 μL of 1% heparin salt solution. The test tubes were dried overnight at 60° C. prior to use. After the blood sample collection at the last time point, the rats were killed after the ether anesthesia.
Immediately after the blood sample collection, the test tubes were gently inverted at least 5 times to ensure the fully mixing and placed them on ice. The blood samples were centrifuged at 4° C., 5000 rpm for 5 minutes to separate the plasma from the red blood cells. 100 μL of plasma was pipetted into a clean plastic centrifuge tube, with the name of the compound and time point on it. The plasma was stored at −80° C. before analysis, and LC-MS/MS was used to determine the concentration of the compounds disclosed herein in plasma. Pharmacokinetic parameters were calculated based on the plasma concentrations of each animal at different time points.

EGFR [L858R/T790M] = EGFR [L858R/T790M] (Homo sapiens (Human), UniProt P00533, L858R/T790M); assay: EGFR [L858R/T790M] kinase assay (HTRF Kinase TK kit); assay type: biochemical
Sequence of EGFR [L858R/T790M] (P00533 25-1210 T790M/L858R): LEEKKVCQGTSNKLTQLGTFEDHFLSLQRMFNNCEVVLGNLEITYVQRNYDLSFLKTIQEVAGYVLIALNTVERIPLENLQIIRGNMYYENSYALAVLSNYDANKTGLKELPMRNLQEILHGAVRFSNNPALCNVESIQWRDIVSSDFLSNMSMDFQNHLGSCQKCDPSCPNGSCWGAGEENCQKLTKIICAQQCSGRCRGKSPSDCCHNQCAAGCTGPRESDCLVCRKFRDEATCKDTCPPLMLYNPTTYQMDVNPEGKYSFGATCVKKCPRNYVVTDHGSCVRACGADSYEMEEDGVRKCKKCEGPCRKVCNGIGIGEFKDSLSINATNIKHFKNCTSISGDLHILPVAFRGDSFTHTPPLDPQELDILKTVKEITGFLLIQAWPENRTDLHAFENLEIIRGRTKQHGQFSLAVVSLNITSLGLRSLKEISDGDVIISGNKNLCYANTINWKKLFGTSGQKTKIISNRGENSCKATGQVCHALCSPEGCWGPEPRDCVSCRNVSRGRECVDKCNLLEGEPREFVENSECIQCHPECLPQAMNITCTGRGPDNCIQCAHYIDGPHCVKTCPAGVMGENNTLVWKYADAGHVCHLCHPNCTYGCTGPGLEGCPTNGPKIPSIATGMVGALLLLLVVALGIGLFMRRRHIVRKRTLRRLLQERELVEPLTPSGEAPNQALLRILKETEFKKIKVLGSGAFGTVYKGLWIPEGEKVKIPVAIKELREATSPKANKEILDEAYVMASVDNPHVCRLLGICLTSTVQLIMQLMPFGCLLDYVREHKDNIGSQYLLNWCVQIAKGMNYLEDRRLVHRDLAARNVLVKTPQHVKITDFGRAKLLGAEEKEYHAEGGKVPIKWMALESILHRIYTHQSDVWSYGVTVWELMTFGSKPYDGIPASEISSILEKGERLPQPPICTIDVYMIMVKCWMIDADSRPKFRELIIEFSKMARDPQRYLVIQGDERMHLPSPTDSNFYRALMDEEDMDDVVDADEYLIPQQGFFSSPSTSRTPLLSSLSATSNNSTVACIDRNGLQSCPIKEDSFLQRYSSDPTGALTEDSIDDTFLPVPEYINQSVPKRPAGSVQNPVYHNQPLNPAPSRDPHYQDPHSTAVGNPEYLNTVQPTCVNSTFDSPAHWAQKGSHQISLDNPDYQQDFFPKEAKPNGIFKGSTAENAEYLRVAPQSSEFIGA
From the text: (§1) WT EGFR (Cana, Cat. No. 08-115), EGFR [L858R] (Carna, Cat. No. 08-502), EGFR [L858R/T790M] (Carna, Cat. No. 08-510), ATP (Sigma, Cat. No. A7699-1G), DMSO (Sigma, Cat. No. D2650), 96-well plate (Corning, Cat. No. 3365), 384-well plate (Greiner, Cat. No. 784076), HTRF Kinase TK Kit (Cisbio, Cat. No. 62TK0PEJ), Erlotinib (Selleckchem, Cat. No. S7787), EGFR [d746-750] (Life Technologies, Cat. No. PV6178), 5× Kinase Buffer A (Life Technologies, Cat. No. PV3186), Kinase Tracer 199 (Life Technologies, Cat. No. PV5830), LanthaScreen® Eu-anti-GST antibody (Life Technologies, Cat. No. PV5594).
(§2) Compound preparation: the test compound was dissolved in DMSO to make a 20 mM stock solution. Then, it was diluted in DMSO with a 3-fold series gradient dilution for 10 times. The dilutions were diluted 10 fold with buffer when dosing.
(§3) WT EGFR and EGFR [L858R/T790M] kinase assay: WT EGFR or EGFR [L858R/T790M] kinase was mixed with different concentrations of pre-diluted compounds for 10 minutes in 5× Kinase Buffer A in duplicate. The corresponding substrate and ATP were added and reacted at room temperature for 20 minutes (in which a negative and a positive control were set: the negative control is blank and the positive control is AZD9291). After the reaction, the detection reagent (the reagent in the HTRF Kinase TK kit) was added, and after incubation at room temperature for 30 minutes, the enzyme activity in the presence of the compounds of the present disclosure at each concentration was measured by an Evnvision microplate reader, and the inhibition of the enzyme by the compound at each concentrations were calculated. The inhibitions of the enzyme activity by the compounds at different concentrations were then fitted using Graphpad 5.0 software according to the four-parameter equation, and the IC50 values were calculated.

WT EGFR = WT EGFR (Homo sapiens (Human), UniProt P00533); assay: WT EGFR kinase assay (HTRF Kinase TK kit); assay type: biochemical
Sequence of WT EGFR (P00533 25-1210): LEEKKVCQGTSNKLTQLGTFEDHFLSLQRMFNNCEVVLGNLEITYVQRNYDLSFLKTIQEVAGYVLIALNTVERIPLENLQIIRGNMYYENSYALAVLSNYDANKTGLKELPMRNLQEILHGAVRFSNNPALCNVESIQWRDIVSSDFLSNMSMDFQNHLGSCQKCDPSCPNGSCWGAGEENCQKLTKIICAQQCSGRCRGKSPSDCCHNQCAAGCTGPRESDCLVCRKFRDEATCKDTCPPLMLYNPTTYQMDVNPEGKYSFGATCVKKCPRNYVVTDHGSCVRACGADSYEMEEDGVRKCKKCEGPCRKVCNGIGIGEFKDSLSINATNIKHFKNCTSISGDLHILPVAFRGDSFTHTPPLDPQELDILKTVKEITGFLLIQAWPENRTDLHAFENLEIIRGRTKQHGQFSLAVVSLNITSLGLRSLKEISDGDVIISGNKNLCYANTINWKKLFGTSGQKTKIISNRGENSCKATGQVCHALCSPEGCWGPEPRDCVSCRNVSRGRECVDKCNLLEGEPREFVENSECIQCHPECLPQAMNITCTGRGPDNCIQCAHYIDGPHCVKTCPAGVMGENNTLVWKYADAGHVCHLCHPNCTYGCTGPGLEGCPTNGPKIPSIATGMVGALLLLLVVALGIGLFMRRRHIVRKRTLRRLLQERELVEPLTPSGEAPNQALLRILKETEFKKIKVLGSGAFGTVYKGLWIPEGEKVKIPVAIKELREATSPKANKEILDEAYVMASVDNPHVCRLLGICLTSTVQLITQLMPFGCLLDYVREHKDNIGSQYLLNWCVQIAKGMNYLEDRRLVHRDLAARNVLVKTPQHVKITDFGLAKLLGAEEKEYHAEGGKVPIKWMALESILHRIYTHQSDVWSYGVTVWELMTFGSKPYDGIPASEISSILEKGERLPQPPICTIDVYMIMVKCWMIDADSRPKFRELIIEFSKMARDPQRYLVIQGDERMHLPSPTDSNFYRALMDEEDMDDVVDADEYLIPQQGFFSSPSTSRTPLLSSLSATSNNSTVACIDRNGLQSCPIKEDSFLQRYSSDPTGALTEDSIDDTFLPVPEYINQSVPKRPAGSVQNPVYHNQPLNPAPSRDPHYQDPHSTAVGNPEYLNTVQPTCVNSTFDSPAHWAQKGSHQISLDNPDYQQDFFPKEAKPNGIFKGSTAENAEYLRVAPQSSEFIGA
From the text: as §1, §2, §3

[2] = system: lung cancer cells NCI-H1975 (L858R/T790M); assay: MTS cell viability assay, NCI-H1975; assay type: cell-based; settings: Homo sapiens, 72 hours
Description: (§4) Cell line: Skin cancer cell line A431 (purchased from the American Type Culture Collection (ATCC)); lung cancer cells NCI-H1975 (purchased from the American Type Culture Collection (ATCC)) and HCC827 (purchased from the American Type Culture Collection (ATCC)). All of the cells were cultured in RPMI1640 medium containing 10% fetal bovine serum, 100 U/ml penicillin, and 100 μg/ml streptomycin.
(§5) Reagents and materials: RPMI-1640 (GIBCO, Cat. No. A10491-01); fetal bovine serum (GIBCO, Cat. No. 10099141); 0.25% trypsin-EDTA (GIBCO, Cat. No. 25200); penicillin-streptomycin, liquid (GIBCO, Cat. No. 15140-122); DMSO (Sigma, Cat. No. D2650); MTS Test Kit (Promega, Cat. No. G3581), 96-well plate (Corning, Cat. No. 3365).
(§6) Compound preparation: the test compound was dissolved in DMSO to make a 20 mM stock solution and stored at −20° C. It was diluted in DMSO with a 3-fold series gradient dilution for 10 times. The dilutions were diluted 4 fold with cell culture medium.
(§7) MTS cell viability assay: cells in logarithmic growth phase was digested with 0.25% trypsin-EDTA, and 150 μl of the cells was inoculated in 96-well plates at an optimized density. After 24 hours, the compound diluted 4 fold by adding the medium, 50 μl/well (generally 10 Concentrations were selected: 100, 33.3, 11.1, 3.70, 1.23, 0.412, 0.137, 0.0457, 0.0152, 0.00508 μM). A well added with the same volume of 0.5% DMSO was used as a control. After the cells were cultured for further 72 hours, the cell viability was detected with MTS.
(§8) Specific procedure: cells were adhered, the medium was discarded, and a mixture containing 20 μL MTS and 100 μL medium was added to each well. The OD490 was detected after being placed in the incubator for 1-4 hours, and the OD650 value was used as a reference. A dose-effect curve was prepared using GraphPad Prism software and IC50 was calculated.

[3] = system: lung cancer cells HCC827 (Del19); assay: MTS cell viability assay, HCC827; assay type: cell-based; settings: Homo sapiens, 72 hours
Description: as §4, §5, §6, §7, §8

[4] = system: Skin cancer cell line A431 (WT); assay: MTS cell viability assay, A431; assay type: cell-based; settings: Homo sapiens, A-431, 72 hours
Description: as §4, §5, §6, §7, §8

AUC(0-t) ([1]; IV 0.5 mg/kg single dose) | Cmax ([1]; IV 0.5 mg/kg single dose) | Tmax ([1]; IV 0.5 mg/kg single dose) | half-life ([1]; IV 0.5 mg/kg single dose) | AUC(0-inf) ([1]; IV 0.5 mg/kg single dose) | clearance ([1]; IV 0.5 mg/kg single dose) | MRT inf ([1]; IV 0.5 mg/kg single dose) | Vd ([1]; IV 0.5 mg/kg single dose) | AUC(0-t) ([1]; PO 10 mg/kg single dose) | Cmax ([1]; PO 10 mg/kg single dose) | Tmax ([1]; PO 10 mg/kg single dose) | half-life ([1]; PO 10 mg/kg single dose) | AUC(0-inf) ([1]; PO 10 mg/kg single dose) | MRT inf ([1]; PO 10 mg/kg single dose) | bioavailability [1] | IC50 (EGFR [L858R/T790M]) | IC50 (WT EGFR) | IC50 [2] | IC50 [3] | IC50 [4] | SMILES | also measured
477 ng·h/mL | 323 ng/mL | 0.08 h | 3.78 h | 498 ng·h/mL | 17.5 mL/min/kg | 2.95 h | 5.73 L/kg | 1600 ng·h/mL | 115 ng/mL | 1.33 h | 7.55 h | 1800 ng·h/mL | 9.19 h | 16.7% | < 0.3 nM | < 2 nM | 4.7 nM | 4.2 nM | 200 to 450 nM | C=CC(=O)Nc1cc(Nc2nccc(-n3cc(CN(C)C)c(-c4ccccc4)n3)n2)c(OC)cc1N1CCOCC1 [Compound T-0, reference compound] | inhibitory activity against EGFR mutant kinase (in words) (EGFR mutant kinase): significant inhibitory activity; Cl—pred ([1]; PO 10 mg/kg single dose): 94.2 mL/min/kg; Vz—pred ([1]; PO 10 mg/kg single dose): 61.56 L/kg
– | – | – | – | – | – | – | – | – | – | – | – | – | – | – | < 0.3 nM | < 2 nM | 3.62 nM | 1.56 nM | 200 to 450 nM | [2H]c1c(C([2H])([2H])N(C)C)c(-c2ccccc2)nn1-c1ccnc(Nc2cc(NC(=O)C=C)c(N3CCOCC3)cc2OC)n1 [Compound T-1, N-(5-((4-(4-((dimethylamino)methyl-d2)-3-phenyl-1H-pyrazol-1-yl-5-d)pyrimidin-2-yl)amino)-4-methoxy-2-morpholinophenyl)acrylamide] | –
– | – | – | – | – | – | – | – | – | – | – | – | – | – | – | < 0.3 nM | < 2 nM | 3.57 nM | 1.98 nM | 200 to 450 nM | [2H]c1c([2H])c([2H])c(-c2nn(-c3ccnc(Nc4cc(NC(=O)C=C)c(N5CCOCC5)cc4OC)n3)cc2CN(C)C)c([2H])c1[2H] [Compound T-2, N-(5-((4-(4-((dimethylamino)methyl)-3-(phenyl-d5)-1H-pyrazol-1-yl)pyrimidin-2-yl)amino)-4-methoxy-2-morpholinophenyl)acrylamide] | –
436 ng·h/mL | 299 ng/mL | 0.08 h | 3.56 h | 456 ng·h/mL | 18.5 mL/min/kg | 3.34 h | 5.71 L/kg | 1650 ng·h/mL | 120 ng/mL | 4 h | 7.48 h | 1920 ng·h/mL | 8.67 h | 18.9% | < 0.3 nM | < 2 nM | 4.53 nM | 2.27 nM | 200 to 450 nM | [2H]C([2H])([2H])Oc1cc(N2CCOCC2)c(NC(=O)C=C)cc1Nc1nccc(-n2cc(CN(C)C)c(-c3ccccc3)n2)n1 [Compound T-3, N-(5-((4-(4-((dimethylamino)methyl)-3-phenyl-1H-pyrazol-1-yl)pyrimidin-2-yl)amino)-4-(methoxy-d3)-2-morpholinophenyl)acrylamide] | Cl—pred ([1]; PO 10 mg/kg single dose): 88 mL/min/kg; Vz—pred ([1]; PO 10 mg/kg single dose): 56.99 L/kg; Cmax, AUClast and oral availability (F %) compared with compound T-0 (in words) ([1]; orally): better metabolic parameters
– | – | – | – | – | – | – | – | – | – | – | – | – | – | – | < 0.3 nM | < 2 nM | 5.02 nM | 2.5 nM | 200 to 450 nM | [2H]C([2H])([2H])N(Cc1cn(-c2ccnc(Nc3cc(NC(=O)C=C)c(N4CCOCC4)cc3OC)n2)nc1-c1ccccc1)C([2H])([2H])[2H] [Compound T-4, N-(5-((4-(4-((bis(methyl-d3)amino)methyl)-3-phenyl-1H-pyrazol-1-yl)pyrimidin-2-yl)amino)-4-methoxy-2-morpholinophenyl)acrylamide] | –
– | – | – | – | – | – | – | – | – | – | – | – | – | – | – | < 0.3 nM | < 2 nM | 4.23 nM | 2 nM | 200 to 450 nM | [2H]c1c([2H])c([2H])c(-c2nn(-c3ccnc(Nc4cc(NC(=O)C=C)c(N5CCOCC5)cc4OC)n3)cc2CN(C([2H])([2H])[2H])C([2H])([2H])[2H])c([2H])c1[2H] [Compound T-6, N-(5-((4-(4-((bis(methyl-d3)amino)methyl)-3-(phenyl-d5)-1H-pyrazol-1-yl)pyrimidin-2-yl)amino)-4-methoxy-2-morpholinophenyl)acrylamide] | –
